In patent publication US20260138961A1, “MODULATORS OF MITOCHONDRIAL DNA REPLICATION” (Pretzel Therapeutics, Inc., priority 2022, published 2026) one finds AC50 data, which are given here for five molecules.

A value given as a limit tells only on which side of the number the result lay.

For this test, the target named is T1, POLγ W748S + E1143G (Homo sapiens, UniProt P54098, E1143G/W748S).
T1 sequence (P54098 1-1239 W748S/E1143G): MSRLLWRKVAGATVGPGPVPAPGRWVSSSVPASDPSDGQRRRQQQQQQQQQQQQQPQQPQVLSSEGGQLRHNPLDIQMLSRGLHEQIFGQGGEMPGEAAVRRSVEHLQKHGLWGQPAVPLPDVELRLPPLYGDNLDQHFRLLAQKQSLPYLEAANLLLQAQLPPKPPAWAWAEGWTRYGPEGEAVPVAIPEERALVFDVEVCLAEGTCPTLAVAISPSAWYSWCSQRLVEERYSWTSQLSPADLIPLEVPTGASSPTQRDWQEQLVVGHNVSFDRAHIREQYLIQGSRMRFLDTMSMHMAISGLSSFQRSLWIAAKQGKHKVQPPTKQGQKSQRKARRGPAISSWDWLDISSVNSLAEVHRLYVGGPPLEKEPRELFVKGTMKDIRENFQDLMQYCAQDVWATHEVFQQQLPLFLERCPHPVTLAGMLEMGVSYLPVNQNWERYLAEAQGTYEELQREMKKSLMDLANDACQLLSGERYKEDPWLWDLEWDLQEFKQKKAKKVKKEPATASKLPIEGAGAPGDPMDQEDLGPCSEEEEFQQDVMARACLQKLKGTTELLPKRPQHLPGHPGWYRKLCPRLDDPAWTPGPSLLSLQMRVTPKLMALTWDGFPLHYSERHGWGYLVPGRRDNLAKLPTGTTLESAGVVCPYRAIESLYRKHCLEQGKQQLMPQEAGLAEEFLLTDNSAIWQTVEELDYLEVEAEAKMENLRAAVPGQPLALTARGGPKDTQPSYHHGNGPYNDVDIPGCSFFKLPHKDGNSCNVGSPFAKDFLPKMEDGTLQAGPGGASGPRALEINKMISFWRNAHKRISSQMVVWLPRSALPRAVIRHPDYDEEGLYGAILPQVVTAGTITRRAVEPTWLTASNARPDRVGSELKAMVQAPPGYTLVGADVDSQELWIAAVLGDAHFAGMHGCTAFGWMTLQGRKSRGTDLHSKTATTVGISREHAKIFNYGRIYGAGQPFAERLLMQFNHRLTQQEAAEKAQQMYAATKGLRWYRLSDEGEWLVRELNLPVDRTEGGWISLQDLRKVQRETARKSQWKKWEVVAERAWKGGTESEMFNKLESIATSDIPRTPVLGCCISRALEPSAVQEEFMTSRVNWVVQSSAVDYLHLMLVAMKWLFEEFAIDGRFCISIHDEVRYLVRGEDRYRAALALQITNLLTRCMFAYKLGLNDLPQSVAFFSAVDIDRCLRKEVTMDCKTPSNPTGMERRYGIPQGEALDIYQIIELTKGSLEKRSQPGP
T1 sequence (Q9UHN1 1-485 partner): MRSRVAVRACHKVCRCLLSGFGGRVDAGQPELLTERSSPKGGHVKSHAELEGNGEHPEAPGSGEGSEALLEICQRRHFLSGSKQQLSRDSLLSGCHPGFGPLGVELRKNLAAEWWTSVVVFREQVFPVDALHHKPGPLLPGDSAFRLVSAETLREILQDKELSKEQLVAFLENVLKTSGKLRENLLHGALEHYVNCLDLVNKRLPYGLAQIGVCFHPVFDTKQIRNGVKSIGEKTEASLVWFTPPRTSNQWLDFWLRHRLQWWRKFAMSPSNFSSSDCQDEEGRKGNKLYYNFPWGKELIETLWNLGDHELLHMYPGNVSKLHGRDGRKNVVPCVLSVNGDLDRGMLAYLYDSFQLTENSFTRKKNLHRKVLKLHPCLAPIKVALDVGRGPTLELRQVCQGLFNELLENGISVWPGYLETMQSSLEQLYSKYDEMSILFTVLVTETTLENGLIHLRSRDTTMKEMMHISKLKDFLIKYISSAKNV
As to the kind of experiment: DNA polymerization assay, W748S + E1143G mutant. The format is biochemical. The following applies: stimulation of polymerase activity, primed M13mp18 ssDNA, 37° C. 2 hours. The protocol:
DNA Polymerization Assay to Monitor Effects on Human Wildtype POLγ and Four Disease-Causing Mutant Variants of Human POLγ.
The ability of small molecules to stimulate the polymerase activity of POLγ was analyzed in a quantitative fluorescence SYBR Green I assay with fluorescence intensity (FI) readout.
In the presence of dNTPs, wild type human POLγ and mutant derivatives thereof were incubated with single-stranded, circular M13mp18 ssDNA hybridized to a short DNA oligonucleotide that functions as a primer for initiation of DNA synthesis. POLγ and mutant derivatives thereof will extend the primer and use the M13mp18 molecule as a template to synthesize long stretches of double-stranded DNA. SYBR Green I, which is a double-stranded DNA-binding dye, was used to quantify formation of double-stranded DNA in the reaction. When bound to double-stranded DNA, SYBR Green I fluorescence increases by up to 100-fold.
The assay was performed in the 384-well plate format. Upon addition of compounds, changes in double-stranded DNA synthesis activity can be monitored by following effects on fluorescent intensity.
The reactions also contained the accessory POLγB subunit, and the human mitochondrial single-stranded DNA binding protein (mtSSB).
The DNA template mixture used in the assay contained 0.5 nM primed M13 mp18 ssDNA, 400 nM mtSSB, 0.1 mM Tris-HCl (pH 8.0), 0.1 mM dNTP, 10 mM MgCl2, 0.1 mg/mL BSA, 1 mM TCEP solution, and 0.02% Triton X-100. The DNA template mixture for the wild type protein contained either 100 μM dNTP, 1 μM dNTP, or 0.1 μM dNTP, designated in Table 2 as 100 μM, 1 μM, and 0.1 μM, respectfully.
Microplates with compounds (0.1 μL in each well) to be tested in the assay were prepared from 10 mM compound stocks in 100% DMSO, and equal amounts of DMSO without any compound were added to positive and negative control wells.
The protein mixture was dispensed (5 μL into each well) into compound plates and incubated at 37° C. for 15 minutes. After incubation, 5 μL of the DNA template mixture was dispensed into each well. The plates were then incubated at 37° C. for 2 hours.
During incubation, a combined stop buffer and detection reagent solution was prepared. The buffer contained 25 mM EDTA (pH 8.0), 0.02% Triton X-100, and SYBR Green I [Invitrogen] diluted 10,000× (for fluorescent readout). EDTA will stop the enzymatic reaction by chelating magnesium ions.
The term AC50 denotes the concentration giving half of the maximal activity seen. Take `Cc1cc(S(=O)(=O)Nc2csc(C(=O)N(CC(N)=O)C3CCCCC3)n2)c(C)cc1Cl` [Example 179, N-(2-amino-2-oxoethyl)-4-((4-chloro-2,5-dimethylphenyl)sulfonamido)-N-cyclohexylthiazole-2-carboxamide]: the AC50 was above 10 µM. Consider `Cc1cc(S(=O)(=O)Nc2csc(-c3ccn(C)n3)n2)c(C)cc1Cl` [Example 181, 4-chloro-2,5-dimethyl-N-(2-(1-methyl-1H-pyrazol-3-yl)thiazol-4-yl)benzenesulfonamide], for which the half-maximal activity concentration (AC50) is above 10 µM. Consider `Cc1cc(S(=O)(=O)Nc2cc(-c3nccs3)ccc2F)c(C)cc1Cl` [Example 61, 4-chloro-N-(2-fluoro-5-(thiazol-2-yl)phenyl)-2,5-dimethylbenzenesulfonamide], for which the AC50 came to 0.7 µM.

`Cc1cc(S(=O)(=O)Nc2cccc(C(=O)N[C@H](C)c3ccccc3)c2)c(C)cc1Cl` [Example 48, (R)-3-((4-chloro-2,5-dimethylphenyl)sulfonamido)-N-(1-phenylethyl)benzamide]: the half-maximal activity concentration (AC50) is 9 µM. Turning to `Cc1cc(S(=O)(=O)Nc2cn(C)c(-c3ccccc3)n2)c(C)cc1Cl` [Example 170, 4-chloro-2,5-dimethyl-N-(1-methyl-2-phenyl-1H-imidazol-4-yl)benzenesulfonamide], the AC50 is above 10 µM.
